Test results published in US20100028334A1, “COMPOSITIONS AND METHODS TO POTENTIATE COLISTIN ACTIVITY” (TRUSTEES OF BOSTON UNIVERSITY, priority 2006, published 2010).

Key:
E. coli = assay: minimum inhibitory concentration (MIC) assay of colistin with mefloquine; type: cell-based
Method: The efficacy of colistin in inhibiting the growth and/or suppressing survival of E. coli in the presence of one inhibitor, mefloquine was assessed in a minimum inhibitory concentration (MIC) assay.

gram-positive bacteria = type: cell-based; settings: used concurrently with colistin; data not shown
[1] = target: Escherichia coli H+-ATP synthase (Escherichia coli, UniProt P0AB98+P68699); settings: cited from earlier work
[2] = tested on: wild-type, BW25113 E. coli cells; assay: colony formation unit (CFU) assay, parent strain; type: cell-based
Method: (§1) The cells were incubated with colistin at a final concentration of 1.25 ug/ml. […] 10 ul of cells were plated onto LB agar [no colistin] plates. Number of colonies were counted after overnight incubation at 37 C. Colony count was normalized to get the same starting amount of cells for all strains. […] Log change in colony forming units per ml (CFU/ml) of wild-type, BW25113 E. coli cells (mean±s.d.) in presence or absence of colistin and potassium tellurite. Cell were grown in the absence or presence of colistin (1.25 ug/ml), potassium tellurite (1.6 ug/ml) alone and combined. […] Number of colonies were counted after overnight incubation at 37 C. Colony count was normalized to get the same starting amount of cells for all strains.
For CFU measurements, 50 μl of stationary phase culture was inoculated into 5 ml of LB. 240 or 245 μl of the freshly diluted cells were placed into wells of a 96 well plate (Costar), 5 μl of colistin and or potassium tellurite were added into each well to obtain a final volume of 250 μl. The 96 well plates were then incubated at 37° C. At the 0, 3 and 6 hours time points, 20 μl of culture was collected and then serially diluted in 180 μl of 1×PBS, pH 7.2 (Fisher). A 10 μl portion of each dilution was plated onto LB agar (Fisher)), and the plate was incubated overnight at 37° C. Dilutions that yielded between 20 and 100 colonies were counted and CFU were normalized to reflect the same amount of cells for the starting cultures.
The cells were grown with or without colistin, aliquots were taken at defined time points and serial dilution of the cells plated, colony count allowed to quantify the bactericidal effect of colistin. We noticed that the iscS and ubiH mutants were slow growers and formed small size colonies compared to the parent strain.

iscS mutant = settings: Rojas and Vasquez, 2005; cited from earlier work
P aeruginosa = settings: recent studies; cited from earlier work
[3] = after intravenous administration of colistimethate (sodium); cited from earlier work
[4] = tested on: ubiH and iscS mutant E. coli cells; assay: colony formation unit (CFU) assay, deletion mutants; type: cell-based; settings: colistin 1.25 ug/ml, FIG. 5A
Method: as §1
For CFU measurements, 50 μl of stationary phase culture was inoculated into 5 ml of LB. 240 or 245 μl of the freshly diluted cells were placed into wells of a 96 well plate (Costar), 5 μl of colistin and or potassium tellurite were added into each well to obtain a final volume of 250 μl. […] Dilutions that yielded between 20 and 100 colonies were counted and CFU were normalized to reflect the same amount of cells for the starting cultures.
The cells were grown with or without colistin, aliquots were taken at defined time points and serial dilution of the cells plated, colony count allowed to quantify the bactericidal effect of colistin. […]

[5] = cited from earlier work

With `OC(c1cc(C(F)(F)F)nc2c(C(F)(F)F)cccc12)C1CCCCN1` (stereo not shown) [mefloquine] the “potentiation of colistin efficacy by mefloquine” value (E. coli; mefloquine at concentrations above 50 μg/ml or greater) was “dose-dependent potentiation of colistin efficacy” and the “potentiation of colistin against gram-positive bacteria” value (gram-positive bacteria) was “potentiates colistin ability to decrease gram-positive bacteria”.
For `CC[C@H]1/C=C/C=C/C[C@@H](C)[C@H](O)[C@@](C)(O)C(=O)[C@@H](C)[C@H](O)[C@@H](C)C(=O)[C@@H](C)[C@H](O)[C@@H](C)/C=C/C(=O)O[C@@H]2[C@H](C)[C@H](CC1)O[C@]1(CC[C@H](C)[C@H](C[C@@H](C)O)O1)[C@H]2C` [oligomycin], the “inhibition of ATP-driven proton transport and ATP hydrolysis” value [1] is given as “weakly inhibited”.
In the case of `O=[Te]([O-])[O-].[K+].[K+]` [potassium tellurite], the “effect on CFU” value ([2]; potassium tellurite 1.6 ug/ml, 3 hour time point) is given as “not or little affecting the CFU”, the growth inhibition ([2]; potassium tellurite 1.6 ug/ml, 6 hours) is given as “stronger growth inhibition” and the “sensitivity of iscS mutant” value (iscS mutant) is given as “sensitive”.
In the case of colistimethate, the antibacterial activity (P aeruginosa) is given as “non-active prodrug of colistin” and the “plasma half-lives relative to those of the colistin generated” value [3] is given as “approximately half”.
For colistin, the MIC of colistin (E. coli; in the absence of mefloquine) was 6.3 µg/mL, the MIC of colistin required to suppress growth (E. coli; in the presence of 50 μg/ml of mefloquine) was 6.3 µg/mL and the MIC of colistin required to suppress growth (E. coli; in the presence of 100 μg/ml of mefloquine) was 3.1 µg/mL. The MIC of colistin required to suppress growth (E. coli; in the presence of 200 μg/ml of mefloquine) was 0.8 µg/mL, the colony detection ([4]; 5 hour time point) was “almost no colony detection” and the “viability of mutants when exposed to colistin” value [4] was “significant decrease in viability”. For the same compound, the “stability in human plasma” value [5] was “more stable than colistimethate”, the “viability of parent strain compared to non treated cells” value ([2]; colistin 1.25 ug/ml, 3 and 5 hour time points, FIG. 5A) was “no significant decrease in viability” and the “viability (CFU) compared to non treated cells” value ([2]; colistin 1.25 ug/ml, 3 hour time point, FIG. 5B) was “no significant decrease in viability”. The “viability (CFU)” value ([2]; colistin 1.25 ug/ml, 5 hour time point, FIG. 5B) was “decrease in viability”.
For venturicidin, the “inhibition of ATP-driven proton transport and ATP hydrolysis” value [1] is given as “strongly inhibited”.
